In patent US7268212B2, “Ligand of G protein-coupled receptor protein and DNA thereof” (Takeda Pharmaceutical Company Limited, priority 2001, dated 2007) one finds IC50 and feed uptake data, which are given here for one sequence.

For one assay, the target named is T1, bovine GPR7 (Bos taurus, UniProt Q8MJV3).
T1 construct: expressed in transfected cells; host or cells: CHO cells
T1 sequence (Q8MJV3 1-331): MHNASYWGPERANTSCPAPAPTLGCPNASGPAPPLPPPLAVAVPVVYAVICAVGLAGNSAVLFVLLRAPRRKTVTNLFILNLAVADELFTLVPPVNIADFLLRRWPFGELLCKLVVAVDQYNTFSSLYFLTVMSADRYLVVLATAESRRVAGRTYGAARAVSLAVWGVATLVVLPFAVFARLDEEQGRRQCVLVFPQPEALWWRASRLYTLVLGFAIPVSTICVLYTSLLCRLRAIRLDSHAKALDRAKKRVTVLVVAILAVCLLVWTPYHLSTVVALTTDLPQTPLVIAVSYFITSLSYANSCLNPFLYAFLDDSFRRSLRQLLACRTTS
Nature of the assay: Intracellular cAMP production suppression activity on bovine GPR7-expressed CHO cells. Type of assay: cell-based. To be noted: forskolin-promoted cAMP production; receptor-expressed CHO cells; read-out: IC50 (nM) bovine GPR7, cAMP production inhibition. The protocol:
The intracellular cAMP production suppression activity of peptides associated with various GPR7 ligands on CHO cells, in which human GPR7, bovine GPR8, human GPR8, human GPR8, bovine GPR8 and rat GPR7 were expressed, was examined. […] An assay buffer was prepared by adding 20 mM HEPES, pH7.4, 0.1% bovine serum albumin and 0.2 mM 3-isobutyl-1-methylxanthine (Sigma) to Hanks' Balanced Salt Solution (Gibco BRL). The plate incubated overnight was first washed twice with 150 μl of the assay buffer, and then exchanged with 150 μl of the assay buffer, followed by incubation for 30 minutes at 37° C. in 100% air. By adding 4 μM forskolin to the assay buffer, a buffer for sample dilution was prepared and the stock solution (10^−2 M of 10^−3 M) was diluted with the buffer thus obtained to prepare sample solutions in final concentrations of 10^−6 M, 10^−7 M, 10^−8 M, 10^−9 M and 10^−10 M. The plate incubated with the assay buffer for 30 minutes was taken out. After washing twice with the assay buffer, 50 μl of the assay buffer and then 50 μl of the sample solution were added thereto. Each sample was assayed in triplet. […] A difference between the maximum cAMP level and the cAMP level when each sample was added was calculated and the percentage of cAMP production level promoted by forskolin was worked out, which was made the cAMP production inhibition rate.

The next assay relates to Wistar male rats. Nature of the assay: Effect of GPR7 ligand on feed uptake in rat by lateral ventricular injection. In kind it is in vivo. To be noted: 10 nmols/rat into the lateral ventricle; from 2 hours after the administration; compared to the control group (distilled water). The protocol:
The effect of GPR7 ligand (GPR7L) on feed uptake in rat by lateral ventricular injection was examined. Rat was caged at room temperature of 25° C. while lighting for 8 to 20 o'clock. Mature Wistar male rats (300-320 g body weight upon surgery) were anesthetized with an intraperitoneal injection of 50 mg/kg pentobarbital and placed in a rat brain stereotaxic instrument. The level of incisor bar was 3.3 mm below the interaural line. The skull was exposed, and using a dental drill a hole was made on the bone for implantation of guide cannula AG-8 (inner diameter of 0.4 mm, outer diameter of 0.5 mm, EICOM Corporation). In addition, an anchor screw was buried at 3 positions around the hole. A stainless-steel guide cannula, AG-8, was inserted in such a manner that the tip was situated at the upper part of the lateral ventricle. Stereotaxic coordinates were taken from the atlas according to the atlas of Paxinos & Watson (1986) from bregma AP: −0.8 mm, L:1.5 mm and H:−4.5 mm. The guide cannula was secured to the skull using a dental cement and an anchor screw. […]
After the guide cannula was implanted, rats were caged for about a week to recover from surgical operation. […] The infusion was continued from 19:00 to 20:00 o'clock, and the feed uptake thereafter was measured with passage of time, using a feed uptake measuring device Feed-Scale (Columbus, Inc.).

No end group written: not given here.

In general, IC50 refers to the midpoint of a concentration-inhibition curve. As to “WYKPTAGQGYYSVGRAAGLLSGFHRSPYA [Trp1-bovine GPR7L(29)]”, the 50% inhibitory concentration (IC50) at bovine GPR7 worked out at 1.2 nM. In addition, the feed uptake result in the assay on Wistar male rats is “significant increase in feed uptake”.
